This passage reports MIC results from patent publication US9527867B2, “Antibacterial biaromatic derivatives” (Actelion Pharmaceuticals Ltd., priority 2013, dated 2016).

Broadly, the MIC is the lowest concentration found to suppress growth.

Assay in all cases: Bacterial growth minimal inhibitory concentration (broth microdilution, CLSI M7-A7)
Common to all, as to assay type: cell-based

Assay [1] deals with Acinetobacter baumannii T6474. The note with it: Acinetobacter baumannii, T6474, cation-adjusted Mueller-Hinton Broth, multiply-resistant strain (in particular quinolone-resistant). The procedure: (§1) Minimal Inhibitory Concentrations (MICs; mg/L) were determined in cation-adjusted Mueller-Hinton Broth by a microdilution method following the description given in “Methods for Dilution Antimicrobial Susceptibility Tests for Bacteria that Grow Aerobically”, Approved standard, 7th ed., Clinical and Laboratory Standards Institute (CLSI) Document M7-A7, Wayne, Pa., USA (2006).
(§2) All Example compounds were tested against several Gram positive and Gram negative bacteria. […] Staphylococcus aureus A798, Enterococcus faecium A949 and Acinetobacter baumannii T6474 are multiply-resistant strains (in particular quinolone-resistant), while Moraxella catarrhalis A894 is a quinolone-sensitive strain and Staphylococcus aureus ATCC29213 is a methicillin-sensitive and quinolone-sensitive strain.

Assay [2] deals with Enterococcus faecium A949. The note with it: Enterococcus faecium, A949, cation-adjusted Mueller-Hinton Broth, multiply-resistant strain (in particular quinolone-resistant), read-out: MIC for E. faecium A949. The procedure: as §1, §2
The test system of assay [3] is Moraxella catarrhalis A894. The note with it: Moraxella catarrhalis, A894, cation-adjusted Mueller-Hinton Broth, quinolone-sensitive strain. The procedure:
as §1, §2

Assay [4] concerns Staphylococcus aureus ATCC29213. The note with it: Staphylococcus aureus, ATCC29213, cation-adjusted Mueller-Hinton Broth, methicillin-sensitive and quinolone-sensitive strain, read-out: MIC for S. aureus ATCC29213. The method, then: as §1, §2
The subject of assay [5] is Staphylococcus aureus A798. The note with it: Staphylococcus aureus, A798, cation-adjusted Mueller-Hinton Broth, multiply-resistant strain (in particular quinolone-resistant), read-out: MIC for S. aureus A798. The method, then: as §1, §2

Converted amounts (≈) assume the structure as drawn.

On to `COc1cccc(-c2cccc(CNCCc3cn(-c4ccc5c(n4)NC(=O)CO5)c(=O)o3)c2)n1` [Example 35, 6-(5-{2-[3-(6-methoxy-pyridin-2-yl)-benzylamino]-ethyl}-2-oxo-oxazol-3-yl)-4H-pyrido[3,2-b][1,4]oxazin-3-one], for which the MIC is 0.125 µg/mL (≈ 0.264 µM) in assay [1]; 1 µg/mL (≈ 2.11 µM) in assay [2]; not above 0.016 µg/mL in assay [3]; 0.063 µg/mL (≈ 0.133 µM) in assay [4]; 0.063 µg/mL (≈ 0.133 µM) in assay [5].

Consider `N#Cc1cccc(-c2cccc(CNCCc3cn(-c4ccc5c(n4)NC(=O)CO5)c(=O)o3)c2)c1` [Example 36, 3′-({2-[2-oxo-3-(3-oxo-3,4-dihydro-2H-pyrido[3,2-b][1,4]oxazin-6-yl)-2,3-dihydro-oxazol-5-yl]-ethylamino}-methyl)-biphenyl-3-carbonitrile], for which the minimal inhibitory concentration (MIC) in assay [1] was 0.063 µg/mL (≈ 0.135 µM); in assay [2] it was 0.5 µg/mL (≈ 1.07 µM); in assay [3] it was not above 0.016 µg/mL; in assay [4], 0.063 µg/mL (≈ 0.135 µM); in assay [5], 0.063 µg/mL (≈ 0.135 µM).

Regarding `COc1ccc(C#N)c(-c2cccc(CNCCc3cn(-c4ccc5c(n4)NC(=O)CO5)c(=O)o3)c2)c1` [Example 37, 5-methoxy-3′-({2-[2-oxo-3-(3-oxo-3,4-dihydro-2H-pyrido[3,2-b][1,4]oxazin-6-yl)-2,3-dihydro-oxazol-5-yl]-ethylamino}-methyl)-biphenyl-2-carbonitrile], the MIC was 0.25 µg/mL (≈ 0.503 µM) in assay [1]; 1 µg/mL (≈ 2.01 µM) in assay [2]; not above 0.016 µg/mL in assay [3]; 0.063 µg/mL (≈ 0.127 µM) in assay [4]; 0.063 µg/mL (≈ 0.127 µM) in assay [5].

On to `N#Cc1ccc(O)c(-c2cc(CNCC[C@@H]3CN(c4ccc5c(c4)NC(=O)CS5)C(=O)O3)ccn2)c1` [Example 38, 4-hydroxy-3-[4-({2-[(R)-2-oxo-3-(3-oxo-3,4-dihydro-2H-benzo[1,4]thiazin-6-yl)-oxazolidin-5-yl]-ethylamino}-methyl)-pyridin-2-yl]-benzonitrile], for which the minimal inhibitory concentration (MIC) was 0.063 µg/mL (≈ 0.126 µM) in assay [1]; 0.125 µg/mL (≈ 0.249 µM) in assay [2]; not above 0.016 µg/mL in assay [3]; not above 0.016 µg/mL in assay [4]; not above 0.016 µg/mL in assay [5].

With `COc1cccc(-c2cc(CNCC[C@@H]3CN(c4ccc5c(c4)NC(=O)CS5)C(=O)O3)ccn2)c1` [Example 39, 6-[(R)-5-(2-{[2-(3-methoxy-phenyl)-pyridin-4-ylmethyl]-amino}-ethyl)-2-oxo-oxazolidin-3-yl]-4H-benzo[1,4]thiazin-3-one], the minimal inhibitory concentration (MIC) in assay [1] was 2 µg/mL (≈ 4.08 µM); in assay [2], 4 µg/mL (≈ 8.15 µM); in assay [3] it was 0.125 µg/mL (≈ 0.255 µM); in assay [4], 1 µg/mL (≈ 2.04 µM); in assay [5], 1 µg/mL (≈ 2.04 µM).

In the case of `N#Cc1cccc(-c2cccc(CNCC[C@H]3CN(c4ccc5c(n4)NC(=O)CO5)C(=O)O3)c2)c1` [Example 40, 3′-({2-[(S)-2-oxo-3-(3-oxo-3,4-dihydro-2H-pyrido[3,2-b][1,4]oxazin-6-yl)-oxazolidin-5-yl]-ethylamino}-methyl)-biphenyl-3-carbonitrile], the minimal inhibitory concentration (MIC) was 0.25 µg/mL (≈ 0.532 µM) in assay [1]; 2 µg/mL (≈ 4.26 µM) in assay [2]; not above 0.016 µg/mL in assay [3]; 0.125 µg/mL (≈ 0.266 µM) in assay [4]; 0.125 µg/mL (≈ 0.266 µM) in assay [5].

Turning to `COc1cccc(-c2cccc(CNCC[C@H]3CN(c4ccc5c(n4)NC(=O)CO5)C(=O)O3)c2)n1` [Example 41, 6-((S)-5-{2-[3-(6-methoxy-pyridin-2-yl)-benzylamino]-ethyl}-2-oxo-oxazolidin-3-yl)-4H-pyrido[3,2-b][1,4]oxazin-3-one], the MIC in assay [1] is 0.25 µg/mL (≈ 0.526 µM); in assay [2] it was 1 µg/mL (≈ 2.1 µM); in assay [3], not above 0.016 µg/mL; in assay [4] it was 0.063 µg/mL (≈ 0.132 µM); in assay [5] it was 0.063 µg/mL (≈ 0.132 µM).

In the case of `COc1ccc(C#N)c(-c2cccc(CNCC[C@H]3CN(c4ccc5c(n4)NC(=O)CO5)C(=O)O3)c2)c1` [Example 42, 5-methoxy-3′-({2-[(S)-2-oxo-3-(3-oxo-3,4-dihydro-2H-pyrido[3,2-b][1,4]oxazin-6-yl)-oxazolidin-5-yl]-ethylamino}-methyl)-biphenyl-2-carbonitrile], the minimal inhibitory concentration (MIC) in assay [1] is 0.5 µg/mL (≈ 1 µM); in assay [2] it was 1 µg/mL (≈ 2 µM); in assay [3], not above 0.016 µg/mL; in assay [4], 0.063 µg/mL (≈ 0.126 µM); in assay [5] it was 0.125 µg/mL (≈ 0.25 µM).

With `COc1cccc(-c2cccc(CNCC[C@H]3CN(c4ccc5c(c4)NC(=O)CS5)C(=O)O3)c2)n1` [Example 43, 6-((S)-5-{2-[3-(6-methoxy-pyridin-2-yl)-benzylamino]-ethyl}-2-oxo-oxazolidin-3-yl)-4H-benzo[1,4]thiazin-3-one], the minimal inhibitory concentration (MIC) in assay [1] was 0.5 µg/mL (≈ 1.02 µM); in assay [2], 2 µg/mL (≈ 4.08 µM); in assay [3], not above 0.016 µg/mL; in assay [4], 0.125 µg/mL (≈ 0.255 µM); in assay [5], 0.063 µg/mL (≈ 0.128 µM).

As for `COc1cnnc(-c2cccc(CNCC[C@H]3CN(c4ccc5c(n4)NC(=O)CO5)C(=O)O3)c2)c1` [Example 44, 6-((S)-5-{2-[3-(5-methoxy-pyridazin-3-yl)-benzylamino]-ethyl}-2-oxo-oxazolidin-3-yl)-4H-pyrido[3,2-b][1,4]oxazin-3-one], the MIC in assay [1] is 0.25 µg/mL (≈ 0.525 µM); in assay [2], 8 µg/mL (≈ 16.8 µM); in assay [3], not above 0.016 µg/mL; in assay [4], 0.25 µg/mL (≈ 0.525 µM); in assay [5], 0.125 µg/mL (≈ 0.262 µM).

`N#Cc1ccc(O)c(-c2cccc(CNCC[C@H]3CN(c4ccc5c(n4)NC(=O)CO5)C(=O)O3)c2)c1` [Example 45, 6-hydroxy-3′-({2-[(S)-2-oxo-3-(3-oxo-3,4-dihydro-2H-pyrido[3,2-b][1,4]oxazin-6-yl)-oxazolidin-5-yl]-ethylamino}-methyl)-biphenyl-3-carbonitrile]: the MIC in assay [1] is 2 µg/mL (≈ 4.12 µM); in assay [2] it was more than 8 µg/mL; in assay [3], 0.125 µg/mL (≈ 0.257 µM); in assay [4], 2 µg/mL (≈ 4.12 µM); in assay [5], 4 µg/mL (≈ 8.24 µM).

`N#Cc1cccc(-c2cc(CNCC[C@H]3CN(c4ccc5c(n4)NC(=O)CO5)C(=O)O3)ccn2)c1` [Example 46, 3-[4-({2-[(S)-2-oxo-3-(3-oxo-3,4-dihydro-2H-pyrido[3,2-b][1,4]oxazin-6-yl)-oxazolidin-5-yl]-ethylamino}-methyl)-pyridin-2-yl]-benzonitrile]: the minimum inhibitory concentration (MIC) in assay [1] turned out to be 0.25 µg/mL (≈ 0.531 µM); in assay [2], 2 µg/mL (≈ 4.25 µM); in assay [3] it was 0.031 µg/mL (≈ 0.0659 µM); in assay [4], 0.5 µg/mL (≈ 1.06 µM); in assay [5], 0.5 µg/mL (≈ 1.06 µM).

`N#Cc1cc(O)nc(-c2cccc(CNCC[C@@H]3CN(c4ccc5c(c4)NC(=O)CS5)C(=O)O3)c2)c1` [Example 47, 2-hydroxy-6-[3-({2-[(R)-2-oxo-3-(3-oxo-3,4-dihydro-2H-benzo[1,4]thiazin-6-yl)-oxazolidin-5-yl]-ethylamino}-methyl)-phenyl]-isonicotinonitrile]: the MIC is 8 µg/mL (≈ 15.9 µM) in assay [1]; more than 8 µg/mL in assay [2]; 0.25 µg/mL (≈ 0.498 µM) in assay [3]; 4 µg/mL (≈ 7.97 µM) in assay [4]; 4 µg/mL (≈ 7.97 µM) in assay [5].

With `COc1ccc(-c2cccc(CNCC[C@H]3CN(c4ccc5c(n4)NC(=O)CO5)C(=O)O3)c2)cc1OC` [Example 48, 6-((S)-5-{2-[(3′,4′-dimethoxy-biphenyl-3-ylmethyl)-amino]-ethyl}-2-oxo-oxazolidin-3-yl)-4H-pyrido[3,2-b][1,4]oxazin-3-one], the MIC in assay [1] worked out at 16 µg/mL (≈ 31.7 µM); in assay [2], 16 µg/mL (≈ 31.7 µM); in assay [3], 0.125 µg/mL (≈ 0.248 µM); in assay [4], 4 µg/mL (≈ 7.93 µM); in assay [5], 4 µg/mL (≈ 7.93 µM).

For `N#Cc1cccc(-c2cc(CNCCc3cn(-c4ccc5c(n4)NC(=O)CO5)c(=O)o3)ccn2)c1` [Example 49, 3-[4-({2-[2-oxo-3-(3-oxo-3,4-dihydro-2H-pyrido[3,2-b][1,4]oxazin-6-yl)-2,3-dihydro-oxazol-5-yl]-ethylamino}-methyl)-pyridin-2-yl]-benzonitrile], the MIC is 0.5 µg/mL (≈ 1.07 µM) in assay [1]; 8 µg/mL (≈ 17.1 µM) in assay [2]; 0.031 µg/mL (≈ 0.0662 µM) in assay [3]; 1 µg/mL (≈ 2.13 µM) in assay [4]; 2 µg/mL (≈ 4.27 µM) in assay [5].

For the compound `O=C1COc2ccc(N3C[C@H](CCNCc4cccc(-c5cccc(OCC6CCC6)c5)c4)OC3=O)nc2N1` [Example 50, 6-((S)-5-{2-[(3′-cyclobutylmethoxy-biphenyl-3-ylmethyl)-amino]-ethyl}-2-oxo-oxazolidin-3-yl)-4H-pyrido[3,2-b][1,4]oxazin-3-one], the minimum inhibitory concentration (MIC) in assay [1] was more than 8 µg/mL; in assay [2], 8 µg/mL (≈ 15.1 µM); in assay [3], 0.5 µg/mL (≈ 0.946 µM); in assay [4], 4 µg/mL (≈ 7.57 µM); in assay [5], 2 µg/mL (≈ 3.78 µM).

On to `COc1cccc(-c2cccc(CNCCc3nn(-c4ccc5c(n4)NC(=O)CO5)c(=O)o3)c2)n1` [Example 51, 6-(5-{2-[3-(6-methoxy-pyridin-2-yl)-benzylamino]-ethyl}-2-oxo-[1,3,4]oxadiazol-3-yl)-4H-pyrido[3,2-b][1,4]oxazin-3-one], for which the minimum inhibitory concentration (MIC) in assay [1] was 0.5 µg/mL (≈ 1.05 µM); in assay [2], 2 µg/mL (≈ 4.22 µM); in assay [3], not above 0.016 µg/mL; in assay [4], 0.5 µg/mL (≈ 1.05 µM); in assay [5] it was 1 µg/mL (≈ 2.11 µM).

As for `COc1ccc(C#N)c(-c2cccc(CNCCc3nn(-c4ccc5c(n4)NC(=O)CO5)c(=O)o3)c2)c1` [Example 52, 5-methoxy-3′-({2-[5-oxo-4-(3-oxo-3,4-dihydro-2H-pyrido[3,2-b][1,4]oxazin-6-yl)-4,5-dihydro-[1,3,4]oxadiazol-2-yl]-ethylamino}-methyl)-biphenyl-2-carbonitrile], the minimal inhibitory concentration (MIC) in assay [1] was determined as 2 µg/mL (≈ 4.01 µM); in assay [2], 4 µg/mL (≈ 8.02 µM); in assay [3] it was 0.031 µg/mL (≈ 0.0622 µM); in assay [4], 0.5 µg/mL (≈ 1 µM); in assay [5], 1 µg/mL (≈ 2.01 µM).
